In the NIST ThermoML archive (doi:10.1021/je8005979):
Numbers after ± are expanded uncertainties.

Details: Crystal; visual observation

For `CCCCCCCCCCCCCCCC(=O)O` [hexadecanoic acid], the Normal melting temperature was 62.7 ± 0.4 °C.
